Assay results from publication PMC11354370, “Inducing Receptor Degradation as a Novel Approach to Target CC Chemokine Receptor 2 (CCR2)” (International Journal of Molecular Sciences, 2024).
Like-named read-outs stand apart in the source and are kept apart here. Peptide text beside a SMILES is read from it. * marks the point of attachment. Cbz = O=C(OCc1ccccc1)*

Legend:
CCR2-HaloTag-HiBiT [1] = assay: Lytic HiBiT assay with inhibitor pretreatment (2 h) then vehicle or HaloPROTAC3 (3 h); assay type: cell-based, human; conditions: 5 µg plasmid; for HaloPROTAC3-mediated CCR2 degradation after pretreatment with the inhibitor: inhibitor 2 h pretreatment, then 1 µM HaloPROTAC3 3 h
Method: To investigate the mechanism of action of HaloPROTAC3-induced degradation of CCR2-HaloTag-HiBiT, we pretreated the cells with a variety of inhibitors. […] After 2 h, the cells were treated with vehicle or HaloPROTAC3 (1µM) and degradation was measured after 3 h of HaloPROTAC3 treatment or vehicle control.
Next, we explored whether degradation occurs via the proteasomal or the lysosomal pathway. […] Finally, we included cycloheximide as an inhibitor of protein synthesis.
Fractional RLU values were calculated from the resulting baseline-corrected values by normalizing all values at a given time point to the vehicle-control value. For lytic HiBiT assays, data are presented as % of vehicle-control; for real-time HiBiT assays, data are presented as fractional RLUs, which corresponds to the ratio between the baseline-corrected RLU values of a compound and the RLU values of the vehicle at any given time point. […] To calculate the degradation rate (K) from real-time HiBiT assays, the degradation curves were fitted to a one-phase exponential decay model following the equation Y = (Y0 − Plateau)e^−Kt + Plateau.

CCR2-HaloTag-HiBiT [2] = target: T1, CCR2-HaloTag-HiBiT (UniProt P0A3G2+P41597, A155T/A167V/A172T/A224E/C128F/C176G/D78G/E160K/E257K/H272N/K175M/K195N/L47V/L88M/N227D/S58T/T264A/Y273L/Y87F); assay type: cell-based, human; conditions: for Dmax ± SEM (maximal degradation): determined at 1 µM, negative values represent an increase in CCR2 levels
CCR2-HaloTag-HiBiT [3] = target: T1, CCR2-HaloTag-HiBiT; assay type: cell-based, human
CCR2-HaloTag-HiBiT [4] = target: T2, CCR2-HaloTag-HiBiT (Homo sapiens, UniProt P41597); assay type: cell-based
T2 construct: host or cells: A549 cells, lentiviral transduction, single-cell clones #25, #26, #27
Description: While the HiBiT luminescence approach provides a good platform for high-throughput screening of targeted protein degradation, integral membrane protein degradation studies benefit from information about their localization. […] To mitigate the need for transfection, we transduced A549 cells with lentiviral particles for stable integration of expression cassettes for CCR2-HaloTag-HiBiT expression constructs, followed by antibiotic selection and limiting dilution to generate single-cell clones.
A549 cells were seeded at 400,000 cells per well in 6 well dishes to be approximately 50% confluent the next day. For seeding 1.5 mL of cell-containing medium was used. A total of 500 µL of lentiviral particles and 1.6 µL of polybrene (Sigma-Aldrich, Merck, Darmstadt, Germany) were added on top, and cells were incubated overnight. The next day, cells were washed two to three times in PBS and a growth medium containing 100 µg/mL of hygromycin B at 100 µg/mL was added. Cells were incubated until non-transduced cells were dead or until transduced cells were confluent (in which case they were split into a bigger flask in a hygromycin selection medium). After selection, cells were diluted to 0.5 cells/200 µL in a growth medium containing 20% FCS, and 96 well plates were seeded with 200 µL per well. Single-cell clones were grown back up to bigger populations and screened by immunofluorescence for HiBiT expression.
A549 CCR2b-HALO-HiBiT expressing cells were seeded onto 384-well plates suitable for high-throughput microscopy (PerkinElmer, Groningen, The Netherlands; Corning, NY, USA) with a density ranging from 2000–4000 cells per well. The next day, plates were treated with different concentrations of HaloPROTAC3 or ent-HaloPROTAC3 using a Tecan D300e digital dispenser. […] Cells were then washed three times in PBS and simultaneously permeabilized and blocked for an hour using a modified blocking buffer (0.1% Triton (v/v), 1% BSA (w/v) (Sigma, A7030, Merck, Darmstadt, Germany)). […] Plates were imaged on either Yokogawa CV7000 or CV8000 systems with appropriate settings for detection of each relevant channel. Images were analyzed using Columbus image analysis.

CCR2-HaloTag-HiBiT [5] = target: T1, CCR2-HaloTag-HiBiT; assay type: cell-based, human; conditions: 1 µM pretreatment 3 h, then 60 nM CCL2; HEK293T CCR2-HaloTag-HiBiT
CCR2-HaloTag-HiBiT [6] = target: T1, CCR2-HaloTag-HiBiT; assay: xCELLigence label-free impedance assay, CCL2 stimulation of HEK293T cells transfected with CCR2-HaloTag-HiBiT; conditions: HEK293T cells expressing CCR2-HaloTag-HiBiT

T1 sequence (P41597+P0A3G2 fused with the stated changes): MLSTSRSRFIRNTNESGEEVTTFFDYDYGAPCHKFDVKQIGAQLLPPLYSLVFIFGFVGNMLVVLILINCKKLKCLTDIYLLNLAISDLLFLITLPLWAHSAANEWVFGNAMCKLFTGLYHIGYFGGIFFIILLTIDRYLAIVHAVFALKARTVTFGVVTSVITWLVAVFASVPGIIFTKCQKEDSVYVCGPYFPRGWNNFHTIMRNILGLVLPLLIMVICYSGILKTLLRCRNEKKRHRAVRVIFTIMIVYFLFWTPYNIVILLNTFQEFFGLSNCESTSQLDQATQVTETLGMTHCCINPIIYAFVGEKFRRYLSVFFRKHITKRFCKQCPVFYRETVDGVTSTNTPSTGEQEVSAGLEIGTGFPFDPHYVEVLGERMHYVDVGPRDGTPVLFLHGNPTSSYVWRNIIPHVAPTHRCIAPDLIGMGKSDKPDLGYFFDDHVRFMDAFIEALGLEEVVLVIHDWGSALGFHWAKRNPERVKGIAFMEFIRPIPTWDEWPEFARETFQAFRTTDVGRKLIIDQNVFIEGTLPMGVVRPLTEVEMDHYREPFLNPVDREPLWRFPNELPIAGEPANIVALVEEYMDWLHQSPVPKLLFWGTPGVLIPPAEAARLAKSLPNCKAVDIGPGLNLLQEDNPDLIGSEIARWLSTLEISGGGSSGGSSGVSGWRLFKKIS
T2 sequence (P41597 other isoform, or with tags, fused parts or gaps): as the sequence (P41597+P0A3G2 fused with the stated changes) above

CO/C1=C\C(C)=C\[C@@H](C)[C@@H](O)[C@@H](C)C/C(C)=C/C=C/[C@H](OC)[C@@H]([C@@H](C)[C@@H](O)[C@H](C)[C@@]2(O)C[C@@H](O)[C@H](C)[C@@H](C(C)C)O2)OC1=O [Bafilomycin-A1, Bafilomycin A1] was tested, and the “increase in CCR2-HaloTag-HiBiT levels, exclusive treatment with inhibitor” value (CCR2-HaloTag-HiBiT [1]; inhibitor 2 h then vehicle 3 h) was > 30%.

For Cc1ncsc1-c1ccc(CNC(=O)[C@@H]2C[C@@H](O)CN2C(=O)[C@H](C(C)C)N2Cc3ccccc3C2=O)c(OCCOCCOCCOCCCCCCCl)c1 [HaloPROTAC3], the “decrease in CCR2 levels (luminescent signal) compared to vehicle control” value (CCR2-HaloTag-HiBiT [2]; 1 µM, 24 h, 5 µg plasmid) was ~ 35%, the “CCR2 degraded, time course” value (CCR2-HaloTag-HiBiT [2]; 1 µM, after 4 h, 5 µg plasmid (Figure S4)) was “Approximately 20%” and the “CCR2 degraded, time course” value (CCR2-HaloTag-HiBiT [2]; 1 µM, after 24 h, 5 µg plasmid (Figure S4)) was 26%. The “CCR2 degraded, time course (maximum degradation)” value (CCR2-HaloTag-HiBiT [2]; 1 µM, by 6 h, 5 µg plasmid (Figure S4)) was 24%, the “pDC50 ± SEM (apparent potency of degradation)” value (CCR2-HaloTag-HiBiT [2]; 24 h, 5 µg plasmid) was 7.4 ± 0.01 and the DC50 (CCR2-HaloTag-HiBiT [2]; 24 h, 5 µg plasmid, read-out: DC50 (apparent degradation potency) (converted)) was 42 nM. The “Dmax ± SEM (maximal degradation)” value (CCR2-HaloTag-HiBiT [2]; 24 h) was 38 ± 5%, the “degradation of CCR2-HaloTag-HiBiT depending on the protein expression levels” value (CCR2-HaloTag-HiBiT [2]; summary over lytic and real-time HiBiT assays (Figure 2 and Figure 3)) was 30–80% and the “degradation achieved after 3 h treatment” value (CCR2-HaloTag-HiBiT [3]; 1 µM (Figure 3B,F)) was > 70%. The “degradation rate compared with cycloheximide on its own” value (CCR2-HaloTag-HiBiT [3]; 1 µM HaloPROTAC3 in absence or presence of 10 µM cycloheximide) was “higher than that determined by cycloheximide on its own”, the “degradation rate (Kdeg)” value (CCR2-HaloTag-HiBiT [3]; 1 µM, 1 µg plasmid) was 0.000131 ± 1.1e-05 s⁻¹ and the “maximal degradation at 24 h” value (CCR2-HaloTag-HiBiT [3]; 1 µM, 1 µg plasmid) was 89 ± 2%. For the same molecule, the “degradation reached after 9 h of treatment up to 24 h” value (CCR2-HaloTag-HiBiT [3]; 1 µM, 3 µg plasmid) was ≥ 90%, the “maximal degradation at 24 h” value (CCR2-HaloTag-HiBiT [3]; 1 µM, 3 µg plasmid) was 76 ± 4% and the “time Dmax was maintained” value (CCR2-HaloTag-HiBiT [3]; 1 µM, 3 µg plasmid) was ~ 15 h. The “degradation rate (Kdeg)” value (CCR2-HaloTag-HiBiT [3]; 1 µM, 3 µg plasmid, one-phase exponential decay) was 0.000144 ± 1.1e-05 s⁻¹, the “degradation rate (Kdeg)” value (CCR2-HaloTag-HiBiT [3]; 1 µM, 5 µg plasmid) was 0.000114 ± 4.72e-05 s⁻¹ and the “maximal degradation at 24 h” value (CCR2-HaloTag-HiBiT [3]; 1 µM, 5 µg plasmid) was 60 ± 6%. For the same molecule, the “degradation potency (pDmax50)” value (CCR2-HaloTag-HiBiT [3]; 3 µg plasmid, Dmax at each concentration) was 6.7 ± 0.1, the “CCR2 degradation by HaloPROTAC3 in the absence of inhibitor” value (CCR2-HaloTag-HiBiT [1]; 1 µM HaloPROTAC3, 3 h) was 32% and the “maximal degradation (HiBiT antibody signal)” value (CCR2-HaloTag-HiBiT [4]; A549 clone #25, 1 µM, 24 h) was 39%. For the same molecule, the DC50 (CCR2-HaloTag-HiBiT [4]; A549 clone #25, 24 h) was 17.1 nM, the “reduction of CCR2-HaloTag-HiBiT levels (HiBiT antibody signal)” value (CCR2-HaloTag-HiBiT [4]; A549 clone #26, 1 µM, 24 h) was “approximately 80%” and the DC50 (CCR2-HaloTag-HiBiT [4]; A549 clone #26, 24 h) was 18.1 nM. The pDC50 (CCR2-HaloTag-HiBiT [4]; A549 clone #26, 24 h) was 7.8 ± 0.1, the “reduction of CCR2-HaloTag-HiBiT levels (HiBiT antibody signal)” value (CCR2-HaloTag-HiBiT [4]; A549 clone #27, 1 µM, 24 h) was “approximately 80%” and the DC50 (CCR2-HaloTag-HiBiT [4]; A549 clone #27, 24 h) was 11.8 nM. For the same molecule, the pDC50 (CCR2-HaloTag-HiBiT [4]; A549 clone #27, 24 h) was 8.0 ± 0.2 and the “remaining CCL2 response (AUC first 20 min, normalized to 60 nM CCL2 alone)” value (CCR2-HaloTag-HiBiT [5]) was 25 ± 19%.

CC(C)C[C@@H](C=O)NC(=O)[C@H](CC(C)C)NC(=O)[C@H](CC(C)C)NC(=O)OCc1ccccc1 [MG-132] (Cbz-Leu-Leu-Leu-aldehyde) was tested, and the “HaloPROTAC3-mediated CCR2 degradation after pretreatment with the inhibitor” value (CCR2-HaloTag-HiBiT [1]) was “partially or fully recovered” and the “reduction in CCR2 levels, exclusive treatment with inhibitor” value (shortened to “reduction in CCR2 levels … with inhibitor”) (CCR2-HaloTag-HiBiT [1]; inhibitor 2 h then vehicle 3 h) was “not observed”.

For NS(=O)(=O)OC[C@@H]1C[C@@H](n2ccc3c(N[C@H]4CCc5ccccc54)ncnc32)C[C@@H]1O [MLN-4924, Pevonedistat], the “HaloPROTAC3-mediated CCR2 degradation after pretreatment with the inhibitor” value (CCR2-HaloTag-HiBiT [1]) was “fully prevented” and the “reduction in CCR2 levels … with inhibitor” value (CCR2-HaloTag-HiBiT [1]; inhibitor 2 h then vehicle 3 h) was 24%.

With CC(C)C[C@H](NC(=O)[C@H](Cc1ccccc1)NC(=O)c1cnccn1)B(O)O [bortezomib] the “HaloPROTAC3-mediated CCR2 degradation after pretreatment with the inhibitor” value (CCR2-HaloTag-HiBiT [1]) was “partially or fully recovered” and the “reduction in CCR2 levels … with inhibitor” value (CCR2-HaloTag-HiBiT [1]; inhibitor 2 h then vehicle 3 h) was ~ 17%.

In the case of CCN(CC)CCCC(C)Nc1ccnc2cc(Cl)ccc12 (stereo not shown) [chloroquine, Chloroquine diphosphate], the “effect on receptor levels, inhibitor on its own” value (CCR2-HaloTag-HiBiT [1]; inhibitor 2 h then vehicle 3 h) is reported as “not affected”.

C[C@@H]1C[C@@H]([C@H](O)CC2CC(=O)NC(=O)C2)C(=O)[C@@H](C)C1 [cycloheximide] was tested, and the “native degradation rate (Knative) of CCR2-HaloTag-HiBiT” value (CCR2-HaloTag-HiBiT [3]; 10 µM cycloheximide, up to 24 h) was 0.25 ± 0.01 h⁻¹, the “HaloPROTAC3-mediated CCR2 degradation after pretreatment with the inhibitor” value (CCR2-HaloTag-HiBiT [1]) was “not affected” and the “reduction in CCR2 levels … with inhibitor” value (CCR2-HaloTag-HiBiT [1]; inhibitor 2 h then vehicle 3 h) was “more than 50%”.

With Cc1ncsc1-c1ccc(CNC(=O)[C@H]2C[C@H](O)CN2C(=O)[C@@H](C(C)C)N2Cc3ccccc3C2=O)c(OCCOCCOCCOCCCCCCCl)c1 [ent-HaloPROTAC3] the “decrease in CCR2 levels (luminescent signal) compared to vehicle control” value (CCR2-HaloTag-HiBiT [2]; 1 µM, 24 h, 5 µg plasmid) was “comparable to vehicle control”, the “Dmax ± SEM (maximal degradation)” value (CCR2-HaloTag-HiBiT [2]; 24 h) was −1 ± 4% and the “CCR2 levels upon titration of compound (normalized to vehicle control 100%)” value (CCR2-HaloTag-HiBiT [2]; multiple concentrations, 24 h, maximal level reached) was “remained unchanged”. For the same molecule, the “CCR2 levels over 24 h” value (CCR2-HaloTag-HiBiT [3]; 1 µM, all DNA plasmid concentrations (1, 3, 5 µg; Figure S5)) was “remained unchanged”, the “change of CCR2 levels, multiple concentrations” value (CCR2-HaloTag-HiBiT [3]; 3 µg plasmid, 24 h) was “did not change CCR2 levels at any of the concentrations tested” and the “effect on HiBiT immunofluorescence signal” value (CCR2-HaloTag-HiBiT [4]; 1 µM, 24 h, A549 clones) was “appeared to increase the signal throughout the cell”. The “remaining CCL2 response (AUC first 20 min, normalized to 60 nM CCL2 alone)” value (CCR2-HaloTag-HiBiT [5]) was 85 ± 10%.

COc1cc(C(=O)O)ccc1NC(=O)[C@@H]1N[C@@H](CC(C)(C)C)[C@](C#N)(c2ccc(Cl)cc2F)[C@H]1c1cccc(Cl)c1F [idasanutlin] was tested, and the “HaloPROTAC3-mediated CCR2 degradation after pretreatment with the inhibitor” value (CCR2-HaloTag-HiBiT [1]) was “neither pomalidomide nor idasanutlin had an effect”.

With Nc1cccc2c1C(=O)N(C1CCC(=O)NC1=O)C2=O (stereo not shown) [pomalidomide] the “HaloPROTAC3-mediated CCR2 degradation after pretreatment with the inhibitor” value (CCR2-HaloTag-HiBiT [1]) was “neither pomalidomide nor idasanutlin had an effect”.

In the case of “CCL2: endogenous chemokine ligand of CCR2”, the “efficacy (Emax) of CCL2” value (CCR2-HaloTag-HiBiT [6]) is reported as 68 ± 8%, the “pEC50 of CCL2-induced impedance increase” value (CCR2-HaloTag-HiBiT [6]) is reported as 7.6 ± 0.2 and the EC50 (CCR2-HaloTag-HiBiT [6]; read-out: EC50 of CCL2-induced impedance increase) is reported as 29 nM.
